Measured values as given in ChEMBL document CHEMBL1201862, “PubChem BioAssay data set” (2004).
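Assay format: 96-well plates, 48-hour exposure. Here, GI50 denotes the concentration required for 50% inhibition of growth.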 Active and inactive are the calls of the source. Cut-off read from the data, not from the text of the source: active = GI50 up to about 1.1 µM and inactive = higher.

Key:
Assay in all cases: inhibition of tumour cell growth, NCI panel, 48 h
RPMI-8226 = system: RPMI-8226
HOP-62 = system: HOP-62
A498 = system: A498
SK-MEL-5 = system: SK-MEL-5
KM12 = system: KM12
UO-31 = system: UO-31
Malme-3M = system: Malme-3M
SW-620 = system: SW-620
SF-268 = system: SF-268
MOLT-4 = system: MOLT-4
UACC-257 = system: UACC-257
IGROV-1 = system: IGROV-1
HCC 2998 = system: HCC 2998
786-0 = system: 786-0
SF-539 = system: SF-539
LOX IMVI = system: LOX IMVI

Structure (SMILES)	GI50 (RPMI-8226)	GI50 (HOP-62)	GI50 (A498)	GI50 (SK-MEL-5)	GI50 (KM12)	GI50 (UO-31)	GI50 (Malme-3M)	GI50 (SW-620)	GI50 (SF-268)	GI50 (MOLT-4)	GI50 (UACC-257)	GI50 (IGROV-1)	GI50 (HCC 2998)	GI50 (786-0)	GI50 (SF-539)	GI50 (LOX IMVI)
CCOC(=O)C(=O)Nc1nc2ccc(C)cc2s1	> 100 µM (inactive)	> 100 µM (inactive)	> 100 µM (inactive)	> 100 µM (inactive)	> 100 µM (inactive)	> 100 µM (inactive)	> 100 µM (inactive)	> 100 µM (inactive)	> 100 µM (inactive)	> 100 µM (inactive)	> 100 µM (inactive)	> 100 µM (inactive)	> 100 µM (inactive)	27.9 µM (inactive)	0.995 µM (active)	
COCC1N=C(c2cc(OC)c(OC)c(OC)c2-c2cc3c(cc2C2OCCCO2)OCO3)O[C@H]1c1ccccc1 (stereo partly specified)	> 100 µM (inactive)	> 100 µM (inactive)	> 100 µM (inactive)	> 100 µM (inactive)	> 100 µM (inactive)	> 100 µM (inactive)	> 100 µM (inactive)	> 100 µM (inactive)	> 100 µM (inactive)	> 100 µM (inactive)	> 100 µM (inactive)	> 100 µM (inactive)	> 100 µM (inactive)	> 100 µM (inactive)	> 100 µM (inactive)	> 100 µM (inactive)
CCCCCCCCCCCCCC(=O)NCC(OCC)OCC		> 100 µM (inactive)	> 100 µM (inactive)	> 100 µM (inactive)	> 100 µM (inactive)	> 100 µM (inactive)	> 100 µM (inactive)	> 100 µM (inactive)	> 100 µM (inactive)		> 100 µM (inactive)	> 100 µM (inactive)	> 100 µM (inactive)	> 100 µM (inactive)	> 100 µM (inactive)	> 100 µM (inactive)
CCOC(=O)C(CCCNC(=O)OC(C)(C)C)N(Cc1ccc(OC)cc1OC)C(=O)CC(=O)CP(=O)(OCC)OCC (stereo unspecified)	> 100 µM (inactive)	> 100 µM (inactive)	> 100 µM (inactive)	> 100 µM (inactive)	> 100 µM (inactive)	> 100 µM (inactive)	> 100 µM (inactive)		> 100 µM (inactive)	56.5 µM (inactive)	> 100 µM (inactive)	> 100 µM (inactive)	> 100 µM (inactive)	> 100 µM (inactive)	> 100 µM (inactive)	> 100 µM (inactive)
CCn1c2ccccc2c2c(-c3ccccc3)cc3c(c21)C(=O)N(c1ccccc1)C3=O		> 10 µM (inactive)	> 100 µM (inactive)	> 100 µM (inactive)	> 100 µM (inactive)	> 100 µM (inactive)	> 100 µM (inactive)	> 100 µM (inactive)	76.6 µM (inactive)	> 100 µM (inactive)	> 100 µM (inactive)	> 100 µM (inactive)	> 100 µM (inactive)	> 100 µM (inactive)	> 100 µM (inactive)	> 100 µM (inactive)
O=c1c2cc3c(cc2c2cccc4c2n1CCC4)OCO3	30.2 µM (inactive)	56.8 µM (inactive)		42.4 µM (inactive)	33.3 µM (inactive)	22.4 µM (inactive)	86.1 µM (inactive)	29.4 µM (inactive)		24.6 µM (inactive)	33.1 µM (inactive)	36.1 µM (inactive)	26.6 µM (inactive)	27 µM (inactive)	30.4 µM (inactive)	42.9 µM (inactive)
C/C(=N\NC(=S)N1CCCCCC1)c1nccnc1C	0.159 µM (active)	35.3 µM (inactive)	1.58 µM (inactive)	0.0292 µM (active)	0.0887 µM (active)		11.8 µM (inactive)	< 0.01 µM (active)	0.176 µM (active)	0.0658 µM (active)	< 0.01 µM (active)	< 0.01 µM (active)	7.36 µM (inactive)	5.14 µM (inactive)	0.242 µM (active)	< 0.01 µM (active)
COc1cc(/C=C2\CCc3ccccc3C2=O)cc(OC)c1OC	3.92 µM (inactive)	21.5 µM (inactive)		12.6 µM (inactive)	13.6 µM (inactive)	16.8 µM (inactive)	16.4 µM (inactive)	16.6 µM (inactive)	16.4 µM (inactive)	9.4 µM (inactive)	14.3 µM (inactive)		18 µM (inactive)	15.7 µM (inactive)	16.9 µM (inactive)	11.9 µM (inactive)
COC(=O)/C=C1/CCC(C(=O)OC)N1 (stereo unspecified)	> 100 µM (inactive)	> 100 µM (inactive)	> 100 µM (inactive)	> 100 µM (inactive)	> 100 µM (inactive)	> 100 µM (inactive)		> 100 µM (inactive)	> 100 µM (inactive)	> 100 µM (inactive)	> 100 µM (inactive)	> 100 µM (inactive)	> 100 µM (inactive)	> 100 µM (inactive)	> 100 µM (inactive)	> 100 µM (inactive)
O=C(CCc1nnc2s/c(=C\c3ccc(Cl)cc3Cl)c(=O)n12)Nc1cc(Cl)c(Cl)cc1Cl	> 10 µM (inactive)	> 10 µM (inactive)	> 10 µM (inactive)	> 10 µM (inactive)	> 10 µM (inactive)	> 10 µM (inactive)	> 10 µM (inactive)	> 10 µM (inactive)	> 10 µM (inactive)	> 10 µM (inactive)	> 10 µM (inactive)	> 10 µM (inactive)	> 100 µM (inactive)	> 10 µM (inactive)	> 10 µM (inactive)	> 10 µM (inactive)
COc1cc2noc(-c3ccccc3)c2cc1OC	18.7 µM (inactive)	22.4 µM (inactive)	20.2 µM (inactive)	46.7 µM (inactive)	29 µM (inactive)	34.8 µM (inactive)	> 100 µM (inactive)	57.3 µM (inactive)	54 µM (inactive)	26.4 µM (inactive)	> 100 µM (inactive)	> 100 µM (inactive)	58.1 µM (inactive)	29.2 µM (inactive)	10.6 µM (inactive)	40.6 µM (inactive)
CN1CCc2ccccc2C(C(=O)c2ccc3c(c2)OCO3)C1=O (stereo unspecified)	> 100 µM (inactive)	> 100 µM (inactive)	> 100 µM (inactive)	53.3 µM (inactive)	> 100 µM (inactive)	94 µM (inactive)	> 100 µM (inactive)	> 100 µM (inactive)	> 100 µM (inactive)	> 100 µM (inactive)	90.2 µM (inactive)	> 100 µM (inactive)		> 100 µM (inactive)		> 100 µM (inactive)
O=C1C=C(Nc2ccccc2C(=O)c2ccccc2)c2ccccc2C1=O	51.6 µM (inactive)	> 100 µM (inactive)	> 100 µM (inactive)		33.3 µM (inactive)	> 100 µM (inactive)	> 100 µM (inactive)	87.9 µM (inactive)	> 100 µM (inactive)		5.85 µM (inactive)	> 100 µM (inactive)	> 100 µM (inactive)	> 100 µM (inactive)	> 100 µM (inactive)	
CC(=O)OCc1c(O)nc2c(c1O)-c1ccccc1CC2	38.5 µM (inactive)	131 µM (inactive)		76.6 µM (inactive)	53.2 µM (inactive)		> 35 µM (inactive)	56.4 µM (inactive)	77.1 µM (inactive)	97.5 µM (inactive)	81.3 µM (inactive)	164 µM (inactive)	80.9 µM (inactive)	56.9 µM (inactive)	89.1 µM (inactive)	61.4 µM (inactive)
CCOC(=O)NNC(=O)NC12CC3CC(CC(C3)C1)C2		> 100 µM (inactive)	> 100 µM (inactive)	> 100 µM (inactive)	> 100 µM (inactive)	> 100 µM (inactive)	> 100 µM (inactive)	> 100 µM (inactive)	> 100 µM (inactive)	> 100 µM (inactive)	> 100 µM (inactive)	> 100 µM (inactive)	> 100 µM (inactive)	> 100 µM (inactive)	> 100 µM (inactive)	> 100 µM (inactive)
COc1ccc(NC(=O)c2oc3cc(O)ccc3c(=O)c2C)c([N+](=O)[O-])c1		> 100 µM (inactive)	> 100 µM (inactive)	> 100 µM (inactive)	> 100 µM (inactive)	> 100 µM (inactive)	> 100 µM (inactive)	> 100 µM (inactive)	> 100 µM (inactive)	> 100 µM (inactive)	> 100 µM (inactive)	> 100 µM (inactive)	> 100 µM (inactive)	> 100 µM (inactive)	> 100 µM (inactive)	> 100 µM (inactive)
Cc1[nH]c2c(C)cccc2c1C1Cc2ccccc2N1 (stereo unspecified)	22.9 µM (inactive)	16.4 µM (inactive)	28.6 µM (inactive)	18.5 µM (inactive)	17.5 µM (inactive)	22.1 µM (inactive)	19.1 µM (inactive)	26.4 µM (inactive)	20.5 µM (inactive)	20.5 µM (inactive)	22.3 µM (inactive)	17.3 µM (inactive)		22.3 µM (inactive)	17.8 µM (inactive)	17.1 µM (inactive)
COc1ccc2nc3cc(Cl)ccc3c(Sc3ccc(N)cc3)c2c1		24.2 µM (inactive)	29.1 µM (inactive)	12.4 µM (inactive)	6.76 µM (inactive)	10.8 µM (inactive)	15 µM (inactive)	3.77 µM (inactive)	11.6 µM (inactive)	2.56 µM (inactive)	13.2 µM (inactive)	16.1 µM (inactive)	12.2 µM (inactive)	6.95 µM (inactive)	13.9 µM (inactive)	7.6 µM (inactive)
